Experimental data: the NIST ThermoML archive (doi:10.1021/acs.jced.5b00393)
± gives the expanded uncertainty stated by the source.

Assays:
[1] = mn = molality of the nth substance listed, in mol/kg; settings: 298.15 K, 101 kPa, Liquid, Pycnometric method
[2] = refractive index (Na D-line) (dimensionless); mn = molality of the nth substance listed, in mol/kg; settings: 298.15 K, 101 kPa, Liquid, Standard Abbe refractometry

Work on `N[C@@H](CS)C(=O)O` [(R)-2-amino-3-mercaptopropanoic acid] + O yielded a mass density ([1]; m1 = 1.821) of 1074.1 ± 1.1 kg/m3 and a refractive index ([2]; m1 = 1.821) of 1.3439 ± 0.0004.

With `NCCCC[C@H](N)C(=O)O` [L-lysine] + O the mass density ([1]; m1 = 4.734) was 1242.1 ± 1.1 kg/m3 and the refractive index ([2]; m1 = 4.734) was 1.4155 ± 0.0004.
